Laboratory results: US20230049231A1 (priority 2019, published 2023)

Legend:
[1] = biological target: T1, Kv1.3 potassium channel (Homo sapiens, UniProt P22001); assay: Kv1.3 potassium channel blocker activity, automated whole-cell patch clamp (Patchliner); format: cell-based
T1 construct: expressed in transfected cells
Procedure, shortened: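 IC50 came from Hill-equation fits of peak and AUC currents from the final pulse at each concentration, normalized to compound-free control. Compounds applied consecutively at 30 nM to 100 μM (up to 0.3% DMSO) to Kv1.3-expressing CHO-K1 cells, P/4 leak subtraction. Pulses were +40 mV, 100 ms, from −90 mV holding, at 0.1 Hz on Patchliner.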

[2] = biological target: T2, hERG channel (Homo sapiens, UniProt Q12809); assay: hERG electrophysiology, automated whole-cell patch clamp (Patchliner); format: cell-based
T2 construct: expressed in transfected cells
Procedure, shortened: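 Automated whole-cell patch clamp on CHO-K1 cells stably expressing hERG; 30 nM–100 μM applied cumulatively to the same cell, ≤0.3% DMSO. Pulses: −80 mV holding, +20 mV for 300 ms, −50 mV for 300 ms tail, 0.3 Hz, 70 per concentration. Last-pulse AUC and peak, normalized to control, were fitted to a Hill equation for IC50.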

[3] = Kv1.3 potassium channel, whole-cell patch clamp
[4] = hERG channel, whole-cell patch clamp
[5] = CHO-K1 cells stably expressing Kv1.3, 100 ms pulses from -90 mV to +40 mV, 0.1 Hz
[6] = CHO-K1 cells stably expressing hERG, +20 mV 300 ms, -50 mV 300 ms tail current, 0.3 Hz

T2 sequence (Q12809 whole entry): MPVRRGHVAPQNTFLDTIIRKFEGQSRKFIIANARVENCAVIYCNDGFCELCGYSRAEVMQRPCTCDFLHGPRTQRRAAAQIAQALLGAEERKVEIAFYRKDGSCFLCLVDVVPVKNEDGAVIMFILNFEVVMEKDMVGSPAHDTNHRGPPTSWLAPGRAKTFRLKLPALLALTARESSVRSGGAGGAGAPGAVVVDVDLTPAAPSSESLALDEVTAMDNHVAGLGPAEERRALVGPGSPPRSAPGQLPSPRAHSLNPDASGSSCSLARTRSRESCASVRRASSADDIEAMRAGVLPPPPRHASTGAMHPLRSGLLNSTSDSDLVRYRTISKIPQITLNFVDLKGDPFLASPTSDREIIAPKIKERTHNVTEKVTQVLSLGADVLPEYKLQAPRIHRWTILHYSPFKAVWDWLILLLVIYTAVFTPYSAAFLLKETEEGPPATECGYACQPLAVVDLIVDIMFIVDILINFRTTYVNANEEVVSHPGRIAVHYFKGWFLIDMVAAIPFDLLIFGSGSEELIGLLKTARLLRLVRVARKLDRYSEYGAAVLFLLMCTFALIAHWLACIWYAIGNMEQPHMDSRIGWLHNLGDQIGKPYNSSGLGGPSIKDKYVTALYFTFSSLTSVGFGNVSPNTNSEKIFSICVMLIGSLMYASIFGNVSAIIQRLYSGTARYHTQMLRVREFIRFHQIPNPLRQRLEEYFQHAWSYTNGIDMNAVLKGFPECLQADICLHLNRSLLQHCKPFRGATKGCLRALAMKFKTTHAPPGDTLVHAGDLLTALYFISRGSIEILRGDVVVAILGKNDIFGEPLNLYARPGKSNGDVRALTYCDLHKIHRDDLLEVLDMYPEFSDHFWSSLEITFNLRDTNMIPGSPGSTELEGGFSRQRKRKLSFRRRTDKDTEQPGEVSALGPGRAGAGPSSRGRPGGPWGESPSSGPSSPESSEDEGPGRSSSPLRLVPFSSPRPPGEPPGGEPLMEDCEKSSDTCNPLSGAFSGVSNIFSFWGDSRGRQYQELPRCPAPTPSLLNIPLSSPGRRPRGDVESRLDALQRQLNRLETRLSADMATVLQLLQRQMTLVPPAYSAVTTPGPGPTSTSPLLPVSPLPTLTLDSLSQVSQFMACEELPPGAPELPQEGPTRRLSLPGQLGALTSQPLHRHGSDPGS
T1 sequence (P22001 whole entry): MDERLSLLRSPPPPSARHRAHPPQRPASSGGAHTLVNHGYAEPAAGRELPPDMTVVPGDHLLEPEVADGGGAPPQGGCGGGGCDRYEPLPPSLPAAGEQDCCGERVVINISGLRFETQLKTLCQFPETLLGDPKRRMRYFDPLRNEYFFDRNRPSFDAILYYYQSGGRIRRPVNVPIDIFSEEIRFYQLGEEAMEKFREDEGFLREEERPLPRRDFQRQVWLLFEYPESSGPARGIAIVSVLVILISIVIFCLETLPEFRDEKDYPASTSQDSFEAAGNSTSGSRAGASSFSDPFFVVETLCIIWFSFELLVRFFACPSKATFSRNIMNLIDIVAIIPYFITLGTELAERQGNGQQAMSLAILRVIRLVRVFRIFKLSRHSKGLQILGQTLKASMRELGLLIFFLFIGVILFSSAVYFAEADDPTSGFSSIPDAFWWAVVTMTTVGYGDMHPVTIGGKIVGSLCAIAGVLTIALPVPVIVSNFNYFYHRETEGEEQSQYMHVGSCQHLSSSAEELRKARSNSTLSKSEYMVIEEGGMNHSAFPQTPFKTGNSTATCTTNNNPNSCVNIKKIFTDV

Row | Compound | IC50 [1, 3] [µM] | IC50 [1, 5] [µM] | IC50 [2, 4] [µM] | IC50 [2, 6] [µM]
1 | O=C1CN(C2CC[C@@H](O)[C@H]2O)C[C@@H]2C[C@H](c3c(O)ccc(Cl)c3Cl)CN12 (relative stereo) [Compound 136, (7R,8aS)-7-(2,3-dichloro-6-hydroxyphenyl)-2-[(2S,3R)-rel-2,3-dihydroxycyclopentyl]-hexahydropyrrolo [1,2-a]pyrazin-4-one] | < 1 | – | > 30 | –
2 | O=C(C[C@H](O)C1CC1)N1CC(=O)N2C[C@@H](c3c(O)ccc(Cl)c3Cl)C[C@H]2C1 [Compound 71, (7R,8aS)-2-[(3S)-3-cyclopropyl-3-hydroxypropanoyl]-7-(2,3-dichloro-6-hydroxyphenyl)-hexahydropyrrolo [1,2-a]pyrazin-4-one] | < 1 | – | < 30 | –
3 | C[C@H]1C(=O)N2CC[C@@H](c3c(O)ccc(Cl)c3Cl)C[C@H]2CN1C(=O)CO [Compound 46, (3S,8R,9aS)-8-(2,3-dichloro-6-hydroxyphenyl)-2-(2-hydroxyacetyl)-3-methyloctahydro-4H-pyrido[1,2-a]pyrazin-4-one] | – | < 1 | – | > 30
4 | O=C1CN(C2CCNCC2)C[C@@H]2C[C@H](c3c(O)ccc(Cl)c3Cl)CN12 [Compound 141, (7R,8aS)-7-(2,3-dichloro-6-hydroxyphenyl)-2-(piperidin-4-yl)-hexahydropyrrolo [1,2-a]pyrazin-4-one] | < 1 | – | > 30 | –
5 | O=C1CN([C@H]2C[C@H](O)C2)C[C@@H]2C[C@H](c3c(O)ccc(Cl)c3Cl)CN12 (relative stereo) [Compound 125, (7R,8aS)-7-(2,3-dichloro-6-hydroxyphenyl)-2-[(1r,3S)-rel-3-hydroxycyclobutyl] hexahydropyrrolo [1,2-a]pyrazin-4-one] | < 1 | – | > 30 | –
6 | O=C([C@@H](O)CO)N1CC(=O)N2CC[C@@H](c3c(O)ccc(Cl)c3Cl)C[C@H]2C1 [Compound 23, (8R,9aS)-8-(2,3-dichloro-6-hydroxyphenyl)-2-[(2S)-2,3-dihydroxypropanoyl]-hexahydro-1H-pyrido[1,2-a]pyrazin-4-one] | – | < 1 | – | > 30
7 | O=C1CN(C[C@@H]2CCN2)C[C@@H]2C[C@H](c3c(O)ccc(Cl)c3Cl)CN12 (single isomer, unassigned; isomer 1) [Compound 139] | < 1 | – | > 30 | –
8 | O=C1CN([C@H]2C[C@@H](O)C2)C[C@@H]2C[C@H](c3c(O)ccc(Cl)c3Cl)CN12 (relative stereo) [Compound 126, (7R,8aS)-7-(2,3-dichloro-6-hydroxyphenyl)-2-[(1s,3R)-rel-3-hydroxycyclobutyl] hexahydropyrrolo [1,2-a]pyrazin-4-one] | < 1 | – | > 30 | –
9 | O=C1CN(CC(O)CO)C[C@@H]2C[C@H](c3c(O)ccc(Cl)c3Cl)CN12 (stereo partly drawn) [Compound 112, (7R,8aS)-7-(2,3-dichloro-6-hydroxyphenyl)-2-(2,3-dihydroxypropyl)-hexahydropyrrolo [l,2-a]pyrazin-4-one] | < 1 | – | > 30 | –
10 | O=C1CN(c2cnc(CO)cn2)C[C@@H]2C[C@H](c3c(O)ccc(Cl)c3Cl)CN12 [Compound 172] | < 1 | – | < 30 | –
11 | C[C@H](O)[C@H](CO)N1CC(=O)N2C[C@@H](c3c(O)ccc(Cl)c3Cl)C[C@H]2C1 (relative stereo) [Compound 165, (7R,8aS)-7-(2,3-dichloro-6-hydroxyphenyl)-2-[(2S,3S)-rel-1,3-dihydroxybutan-2-yl]-hexahydropyrrolo[1,2-a]pyrazin-4-one] | < 1 | – | > 30 | –
12 | O=C1CN(CC2CNC2)C[C@@H]2C[C@H](c3c(O)ccc(Cl)c3Cl)CN12 [Compound 128, (7R,8aS)-2-(azetidin-3-ylmethyl)-7-(2,3-dichloro-6-hydroxyphenyl)-hexahydropyrrolo [1,2-a]pyrazin-4-one] | < 1 | – | > 30 | –
13 | O=C([C@@H](O)CO)N1CC(=O)N2C[C@@H](c3c(O)ccc(Cl)c3Cl)C[C@H]2C1 [Compound 34, (7R,8aS)-7-(2,3-dichloro-6-hydroxyphenyl)-2-[(2S)-2,3-dihydroxypropanoyl]-hexahydropyrrolo [1,2-a]pyrazin-4-one] | – | < 1 | – | > 30
14 | CC[C@@H](O)CC(=O)N1CC(=O)N2C[C@@H](c3c(O)ccc(Cl)c3Cl)C[C@H]2C1 [Compound 69, (7R,8aS)-7-(2,3-dichloro-6-hydroxyphenyl)-2-[(3R)-3-hydroxypentanoyl]-hexahydropyrrolo [1,2-a]pyrazin-4-one] | < 1 | – | > 30 | –
15 | O=C1CN(C[C@@H](O)CO)C[C@@H]2C[C@H](c3c(O)ccc(Cl)c3Cl)CN12 (single isomer, unassigned) [Compound 114] | < 1 | – | > 30 | –
16 | N#CCC(=O)N1CC(=O)N2C[C@@H](c3c(O)ccc(Cl)c3Cl)C[C@H]2C1 [Compound 41, 3-[(7R,8aS)-7-(2,3-dichloro-6-hydroxypheny1)-4-oxo-hexahydropyrrolo[1,2-a]pyrazin-2-yl]-3-oxopropanenitrile] | – | < 1 | – | > 30
17 | C[C@H]1[C@@H]2C[C@H](c3c(O)ccc(Cl)c3Cl)CCN2C(=O)CN1C(=O)CO (single isomer, unassigned; isomer 2) [Compound 84] | < 1 | – | > 30 | –
18 | O=C([C@@H](O)CO)N1CC(=O)N2CC[C@H](c3c(O)ccc(Cl)c3Cl)C[C@@H]2C1 [Compound 64, (8S,9aR)-8-(2,3-dichloro-6-hydroxyphenyl)-2-[(2S)-2,3-dihydroxy-propanoyl]-hexahydro-1H-pyrido[1,2-a]pyrazin-4-one] | < 1 | – | > 30 | –
19 | O=C1CN(c2ccnc(CO)n2)C[C@@H]2C[C@H](c3c(O)ccc(Cl)c3Cl)CN12 [Compound 169, (7R,8aS)-7-(2,3-dichloro-6-hydroxyphenyl)-2-[2-(hydroxymethyl)pyrimidin-4-yl]-hexahydropyrrolo[1,2-a]pyrazin-4-one] | < 1 | – | > 30 | –
20 | O=C1CN([C@H]2CC[C@@H]2O)C[C@@H]2C[C@H](c3c(O)ccc(Cl)c3Cl)CN12 (relative stereo) [Compound 158, (7R,8aS)-7-(2,3-dichloro-6-hydroxyphenyl)-2-[(1R,2R)-rel-2-hydroxycyclobutyl]-hexahydropyrrolo[1,2-a]pyrazin-4-one] | < 1 | – | > 30 | –

The next lines start with results.

Row | IC50 [1, 3] [µM] | IC50 [1, 5] [µM] | Compound | IC50 [2, 4] [µM] | IC50 [2, 6] [µM]
21 | < 1 | – | O=C(C1OC(=O)N2C[C@@H](c3c(O)ccc(Cl)c3Cl)C[C@@H]12)N1CCNCC1 (stereo partly drawn) [Compound 289, (6R,7aS)-6-(2,3-dichloro-6-hydroxyphenyl)-1-(piperazine-1-carbonyl)-tetrahydro-1H-pyrrolo[1,2-c][1,3]oxazol-3-one] | > 30 | –
22 | < 1 | – | O=C1C[C@@H](CO)C[C@@H]2C[C@H](c3c(O)ccc(Cl)c3Cl)CN12 (single isomer, unassigned) [Compound 237] | > 30 | –
23 | < 1 | – | O=C1OC[C@@H]2C[C@H](c3c(O)ccc(Cl)c3Cl)CN12 [Compound 251, (6R,7aS)-6-(2,3-dichloro-6-hydroxyphenyl)-tetrahydro-1H-pyrrolo[1,2-c][1,3]oxazol-3-one] | < 30 | –
24 | < 1 | – | O=C1C[C@H](N2CC(O)C2)C[C@@H]2C[C@H](c3c(O)ccc(Cl)c3Cl)CN12 (single isomer, unassigned) [Compound 197] | > 30 | –
25 | < 1 | – | O=C1C[C@H](N2CC[C@H](O)C2)C[C@@H]2C[C@H](c3c(O)ccc(Cl)c3Cl)CN12 (single isomer, unassigned) [Compound 193] | > 30 | –
26 | < 1 | – | O=C1O[C@H]([C@@H](O)CO)[C@@H]2C[C@H](c3c(O)ccc(Cl)c3Cl)CN12 (single isomer, unassigned) [Compound 262] | > 30 | –
27 | < 1 | – | O=C1C[C@@H](NCCO)C[C@@H]2C[C@H](c3c(O)ccc(Cl)c3Cl)CN12 (single isomer, unassigned) [Compound 202] | > 30 | –
28 | < 1 | – | O=C1O[C@H]([C@H](O)CO)[C@@H]2C[C@H](c3c(O)ccc(Cl)c3Cl)CN12 (single isomer, unassigned) [Compound 263] | > 30 | –
29 | < 1 | – | O=C1O[C@H](CCO)[C@@H]2C[C@H](c3c(O)ccc(Cl)c3Cl)CN12 (single isomer, unassigned) [Compound 270] | < 30 | –
30 | < 1 | – | CNCC1OC(=O)N2C[C@@H](c3c(O)ccc(Cl)c3Cl)C[C@@H]12 (stereo partly drawn) [Compound 281, (6R,7aS)-6-(2,3-dichloro-6-hydroxyphenyl)-1-[(methylamino)methyl]-tetrahydro-1H-pyrrolo[1,2-c][1,3]oxazol-3-one] | < 30 | –
31 | < 1 | – | NCC1OC[C@@H]2C[C@H](c3c(O)ccc(Cl)c3Cl)CCN2C1=O (stereo partly drawn) [Compound 180, (8R,9aS)-3-(aminomethyl)-8-(2,3-dichloro-6-hydroxyphenyl)-hexahydro-1H-pyrido[2,1-c][1,4]oxazin-4-one] | < 30 | –
32 | < 1 | – | O=C1C(O)C(O)C[C@@H]2C[C@H](c3c(O)ccc(Cl)c3Cl)CN12 (stereo partly drawn) [Compound 226, (2R,8aS)-2-(2,3-dichloro-6-hydroxyphenyl)-6,7-dihydroxy-hexahydro-1H-indolizin-5-one] | > 30 | –
33 | < 1 | – | C[C@@H](O)[C@@H]1OC(=O)N2C[C@@H](c3c(O)ccc(Cl)c3Cl)C[C@@H]12 (single isomer, unassigned) [Compound 259] | > 30 | –
